Values of other authors as cited in patent publication US20050267140A1, “Method for treating abnormal cell growth” (priority 2004, published 2005).
Read-outs that look alike come from different tables or passages of the source.

Tested on: previously untreated patients with metastatic colorectal cancer
[1] = capecitabine treatment arms, 2500 mg/m^2/day for 14 days every 3 weeks

- Grade 3-4 diarrhea [1]: 14%
- Grade 3-4 hand-foot syndrome [1]: 17%
Structure (SMILES): CCCCCOC(=O)Nc1nc(=O)n([C@@H]2O[C@H](C)[C@@H](O)[C@H]2O)cc1F [capecitabine, 5′-deoxy-5-fluoro-N-[(pentyloxy)-carbonyl]-cytidine]
- Median survival (European trial (N=602), p=0.30): 13.3 months
- Median survival (US trial (N=605), p=0.24): 12.5 months
- Overall response rate (first of the 2 trials as listed ('respectively'), p=0.014): 21%
- Overall response rate (second of the 2 trials as listed ('respectively'), p=0.03): 21%
